Results: article PMC7335359, “Design and Synthesis of Dihydroxamic Acids as HDAC6/8/10 Inhibitors” (Chemmedchem, 2020)

Key:
Type in all cases: cell-based
[1] = target: T1, HDAC10 (Homo sapiens, UniProt Q969S8); experiment: cellular BRET HDAC10 target engagement assay (stably transfected HeLa cells); parameters: host or cells: HeLa (stably transfected mono-clones); details: for IC50: read-out: HDAC10 BRET pIC50 (converted)
T1 sequence (Q969S8 1-669): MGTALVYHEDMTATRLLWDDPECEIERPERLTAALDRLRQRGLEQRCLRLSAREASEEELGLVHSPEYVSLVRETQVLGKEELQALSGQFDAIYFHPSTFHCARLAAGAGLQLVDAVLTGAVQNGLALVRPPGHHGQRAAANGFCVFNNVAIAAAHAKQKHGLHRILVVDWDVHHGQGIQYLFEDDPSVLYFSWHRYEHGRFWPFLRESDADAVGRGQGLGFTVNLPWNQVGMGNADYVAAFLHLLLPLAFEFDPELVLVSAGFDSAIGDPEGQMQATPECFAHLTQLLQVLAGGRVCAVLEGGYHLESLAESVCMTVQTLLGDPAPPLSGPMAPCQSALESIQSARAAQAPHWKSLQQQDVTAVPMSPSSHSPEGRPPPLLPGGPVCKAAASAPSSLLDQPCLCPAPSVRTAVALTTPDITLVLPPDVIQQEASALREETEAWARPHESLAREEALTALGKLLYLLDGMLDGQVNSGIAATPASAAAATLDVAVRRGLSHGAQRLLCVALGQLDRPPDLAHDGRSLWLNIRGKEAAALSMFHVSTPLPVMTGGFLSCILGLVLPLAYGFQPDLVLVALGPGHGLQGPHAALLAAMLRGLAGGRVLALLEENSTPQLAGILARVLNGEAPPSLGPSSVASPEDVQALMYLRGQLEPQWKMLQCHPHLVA
Method: Production of mono‐clones stably expressing HDAC‐nanoBRET proteins: Plasmids expressing a fusion of HDAC10 with nanoluciferase were obtained from Promega (N2170). HeLa cells (0.75×10^6) were seeded in a 6 cm dish and after 24 h were transfected with a mix of 10 μg plasmid and 3 μL Fugene in 200 μL OptiMEM. In detail, cells were washed with pre‐warmed OptiMEM and subsequently overlaid with 2.3 mL of OptiMEM. After addition of 200 μL transfection mix, cells were incubated for 24 h at 37 °C. Cells were than trypsinized and 0.2×10^5 cells were seeded into both 10 cm and 15 cm dishes. Transformants were selected with 1 mg/mL G‐418 for 6 days with a media change after 3 days. Clones which formed colonies were picked by rinsing plates with 3 mL Trypsin/EDTA (Sigma T3924) followed by a 2 min incubation with 300 μL Trypsin/EDTA at 37 °C. Colonies were then loosened and aspirated with a 10 μL filter tip and transferred to 24‐well plates containing selection medium.
Culture of stable BRET cell lines: Stably transfected HeLa cells were cultivated under sterile conditions in polystyrene cell culture flasks (658170, Greiner) at 37 °C and 5 % CO2 in a humidified atmosphere. DMEM growth medium (D6049, Sigma) was supplemented with 10 % FCS (FBS‐12A, Capricorn Scientific), 1 % penicillin‐streptomycin (P4333, Sigma) and 1 mg/mL Geneticin (2039.3, Roth). At confluency, cells were passaged by removing old medium, DPBS (14190‐094, gibco) wash, trypsination (T4049, Sigma) and seeding in fresh growth medium.
BRET assay: The intracellular target engagement assay on HDAC10 was performed as described by the kit manufacturer in a 96‐well plate (3600, Corning) format with 1.9×10^4 cells per well and a tracer concentration of 0.3 μM. […] Drug dosing was performed from 10 mM and 1 mM DMSO stock solutions with a D300e Digital Dispenser (Tecan), DMSO concentrations were normalized to 0.5 % for all wells. Assay plates were incubated at 37 °C for 2 h followed by measurement of 450 nm and 650 nm luminescence (80 nm bandwidth) at room temperature with a CLARIOstar (BMG Labtech) plate reader 2 min after NanoLuc substrate addition.

[2] = system: acetylation of the HDAC8 substrate SMC3; experiment: Western blot of SMC3 acetylation in SK-N-BE(2)C cells; details: relative to solvent control
Method: Western blot analysis of SMC3, tubulin and histone H3 acetylation: For the analysis of protein acetylation, 1.5–2×10^6 SK‐N‐BE(2)‐C cells were seeded per 10 cm dish and allowed to adhere overnight. Cells were treated for 18 h (Figure 4B) or 6 h (Figure 4E) with inhibitors at concentrations indicated in the respective figure. […] Cell debris was removed by centrifugation (15 000 g for 10 min at 12 °C).

[3] = system: acetylation of tubulin (HDAC6 substrate); experiment: Western blot of tubulin acetylation in SK-N-BE(2)C cells
Method: (§1) Western blot analysis of SMC3, tubulin and histone H3 acetylation: For the analysis of protein acetylation, 1.5–2×10^6 SK‐N‐BE(2)‐C cells were seeded per 10 cm dish and allowed to adhere overnight. Cells were treated for 18 h (Figure 4B) or 6 h (Figure 4E) with inhibitors at concentrations indicated in the respective figure. Cells were lysed in SDS lysis buffer (2 % w/v SDS, 10 % v/v glycerol, 1 mM DTT, 62.5 mM TRIS, pH 6.8) and proteins were denatured at 95 °C for 10 min. Cell debris was removed by centrifugation (15 000 g for 10 min at 12 °C). Western blot analysis was performed as described before.7a The following antibodies were used: anti‐acetylated tubulin (6‐11B‐1; Sigma) anti‐acetylated SMC3 (kindly provided by Katsuhiko Shirahige, Institute for Molecular and Cellular Biosciences, University of Tokyo, Japan),35 anti acetylated histone H3 (#06‐911, Millipore), anti histone H3 (#9715, Cell Signaling Technology) and anti β‐actin (#5441, Sigma‐Aldrich).

[4] = system: acetylation of histone H3 (HDAC1 substrate); experiment: Western blot of histone H3 acetylation in SK-N-BE(2)C cells
Method: as §1

[5] = cellular target engagement, one experiment in triplicate

Compound | HDAC10 BRET pIC50 [1, 5] | acetylation of SMC3 (HDAC8 substrate), Western blot [2] | acetylation of tubulin (HDAC6 substrate), Western blot [3] | acetylation of histone H3 (HDAC1 substrate), Western blot [4] | loss of potency between the FRET and BRET HDAC10 assays ([1]; BRET weaker than FRET) | IC50 [1, 5]
CN(C)Cc1nn(Cc2ccc(C(=O)NO)cc2)c2ccccc12 [Compound 1g] | 7.80 |  |  |  |  | 
O=C(NO)c1ccc(Cc2c[nH]c3ccc(C(=O)NO)cc23)cc1 [Compound 3d] |  | increases acetylation | increases acetylation | significantly weaker effects | ~5 fold | 15.1 nM
CN(C)Cc1nn(Cc2ccc(C(=O)NO)cc2)c2cc(C(=O)NO)ccc12 [Compound 3g] |  | no effect |  |  |  | 158 nM
